Results reported in ChEMBL document CHEMBL4219172, “Synthesis and biological evaluation of pyrimidine derivatives as novel human Pin1 inhibitors” (Bioorg Med Chem, 2018).

The compounds below were run against T1, Peptidyl-prolyl cis-trans isomerase NIMA-interacting 1 (Homo sapiens, UniProt Q13526) (assay: Inhibition of human N-terminal His6-tagged Pin1 PPIase activity expressed in Escherichia coli BL21 using Suc-Ala-Glu-cis-Pro-Phe-4-nitroanilide as substrate preincubated for 10 mins followed by substrate addition monitored for 90 secs by protease enzyme coupled based spectrophotometric analysis). Settings: not given.
T1 sequence (Q13526 whole entry): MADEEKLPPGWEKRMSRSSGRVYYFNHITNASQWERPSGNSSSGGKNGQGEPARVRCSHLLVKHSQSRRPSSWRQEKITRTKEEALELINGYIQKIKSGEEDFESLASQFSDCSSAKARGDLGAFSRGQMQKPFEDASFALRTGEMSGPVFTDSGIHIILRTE

SMILES | IC50
O=[N+]([O-])c1cnc(Cl)nc1Oc1cccc2ocnc12 | 1.68 µM
O=[N+]([O-])c1cnc(CCc2ccccc2)nc1Cl | 13.9 µM
O=[N+]([O-])c1ccc(Cl)nc1Oc1cccc2ocnc12 | > 100 µM
Cn1nc(-c2ccccc2)cc1Oc1nc(Cl)ncc1[N+](=O)[O-] | 2.17 µM
Clc1ncc(Cl)c(Oc2ccccc2)n1 | > 100 µM
O=[N+]([O-])c1cnc(Cl)nc1Nc1ccccc1 | 6.66 µM
O=[N+]([O-])c1cnc(Cl)nc1OCc1ccccc1 | 8.33 µM
COC(=O)c1cnc(Cl)nc1Oc1cccc2ocnc12 | > 100 µM
O=[N+]([O-])c1cnc(Cl)nc1NCCc1ccccc1 | > 100 µM
Cc1cnc(Cl)nc1Oc1ccccc1 | > 100 µM
COc1cccc(Oc2nc(Cl)ncc2[N+](=O)[O-])c1 | 5.04 µM
O=[N+]([O-])c1cnc(-c2ccccc2)nc1Oc1cccc2ocnc12 | > 100 µM
COc1ccccc1Oc1nc(Cl)ncc1[N+](=O)[O-] | 4.03 µM
N#Cc1cnc(Cl)nc1Oc1ccccc1 | 4.36 µM
O=[N+]([O-])c1cnc(-c2ccc3ccccc3c2)nc1Oc1cccc2ocnc12 | > 100 µM
O=C1C=CC(=O)c2c(O)cccc21 [JUGLONE] | 5.9 µM
CNc1nc(Cl)ncc1[N+](=O)[O-] | > 100 µM
O=[N+]([O-])c1cnc(Cl)nc1Oc1ccc2ccccc2c1 | 16.6 µM
FC(F)(F)c1cnc(Cl)nc1Oc1ccccc1 | > 100 µM
O=[N+]([O-])c1cnc(Cl)nc1NC1CCCC1 | > 100 µM
N#Cc1ccccc1Oc1nc(Cl)ncc1[N+](=O)[O-] | 9.05 µM

Second part, the compound after the results:

IC50 | SMILES
4.08 µM | O=[N+]([O-])c1cnc(Cl)nc1OCCc1ccccc1
7.27 µM | O=[N+]([O-])c1cnc(OCCc2ccccc2)nc1Cl
2.24 µM | O=[N+]([O-])c1cnc(Cl)nc1Oc1ccccc1
> 100 µM | O=[N+]([O-])c1cnc(Cl)nc1NC1CCCCC1
18.9 µM | O=C(O)c1cnc(Cl)nc1Oc1cccc2ocnc12
> 100 µM | O=C1CCC(=O)N1c1cnc(Cl)nc1Nc1ccccc1
34 µM | O=[N+]([O-])c1cnc(Cl)nc1Oc1ccc(-c2ccccc2)cc1
20.2 µM | O=C1C=CC(=O)N1c1cnc(Cl)nc1Nc1ccccc1
> 100 µM | O=[N+]([O-])c1cnc(Cl)cc1Oc1cccc2ocnc12
> 100 µM | O=[N+]([O-])c1cnc(Cl)nc1OC1CCCC1
22.6 µM | O=[N+]([O-])c1cnc(Cl)nc1Oc1cccc2ccccc12
3.48 µM | O=[N+]([O-])c1cnc(Cl)nc1Oc1ccccn1
> 100 µM | Cc1cnc(Cl)nc1Oc1cccc2ocnc12
> 100 µM | FC(F)(F)c1cnc(Cl)nc1Oc1cccc2ocnc12
> 100 µM | Clc1ncc(-c2nnco2)c(Nc2ccccc2)n1
> 100 µM | O=[N+]([O-])c1cncnc1Oc1cccc2ocnc12
33.5 µM | Nc1ccccc1Oc1nc(Cl)ncc1[N+](=O)[O-]
9.87 µM | Clc1ncc(-c2ncco2)c(Nc2ccccc2)n1
2.52 µM | O=[N+]([O-])c1cnc(Cl)nc1Oc1ccccc1F
0.82 µM | CC1=C(/C=C/C(C)=C/C=C/C(C)=C/C(=O)O)C(C)(C)CCC1 [TRETINOIN]
5.2 µM | CS(=O)(=O)Nc1ccccc1Oc1nc(Cl)ncc1[N+](=O)[O-]
7.28 µM | O=[N+]([O-])c1cnc(OCc2ccccc2)nc1Cl
> 100 µM | O=[N+]([O-])c1cnc(Cl)nc1OC1CCCCC1

Each compound was assayed against T1, Peptidyl-prolyl cis-trans isomerase NIMA-interacting 1 (assay: Inhibition of human N-terminal His6-tagged Pin1 PPIase activity expressed in Escherichia coli BL21 using Suc-Ala-Glu-cis-Pro-Phe-4-nitroanilide as substrate by beckman coulter-paradigm assay). Settings: TDE = time-dependent effect.

SMILES | inhibition
O=[N+]([O-])c1cnc(Cl)nc1Oc1cccc2ocnc12 | Tde
O=[N+]([O-])c1cnc(Cl)nc1OCc1ccccc1 | Tde

Results, then the compound that gave them:

inhibition | SMILES
Tde | O=[N+]([O-])c1cnc(Cl)nc1Oc1ccccc1
Tde | O=[N+]([O-])c1cnc(OCc2ccccc2)nc1Cl
